# “Also recorded” adds a separate entry of the source. Where two headings read alike, the source gives them in different places.
# Columns and labels:
# [1] = set-up: species or system human; details: in vivo
# [2] = adults, PO bid, ref [6], [60]–[62], cited from earlier work
# [3] = assay type: in vivo, human; details: for AUC(0-t) / Cmax: median (range)
# [4] = tested on: relapsed or refractory solid tumors; experiment: Pediatric phase 1 trial: tumor response; assay type: in vivo, human
smiles,measurement,setting,value
O=C1NC(=O)[C@@H](c2cn3c4c(cccc24)CCC3)[C@@H]1c1c[nH]c2ccccc12 [Tivantinib],"Anemia, maximum Gr. 1 (number of patients)",[1]; human,4
same,Grade 1 or 2 anemia (number),[1]; human,12
same,Grade 1 or 2 fatigue (number),[1]; human,8
same,Grade 1 or 2 hypoalbuminemia (number),[1]; human,4
same,Grade 1 or 2 leukopenia (number),[1]; human,5
same,Grade 1 or 2 lymphopenia (number),[1]; human,8
same,Grade 1 or 2 nausea (number),[1]; human,5
same,Grade 1 or 2 neutropenia (number),[1]; human,5
same,Grade 1 or 2 thrombocytopenia (number),[1]; human,3
same,Grade 1 or 2 vomiting (number),[1]; human,5
same,"Hemoglobin increased, maximum Gr. 1 (number of patients)",[1]; human,1
same,"Lymphocyte count decreased, maximum Gr. 1 (number of patients)",[1]; human,2
same,"Lymphocyte count decreased, maximum Gr. 2 (number of patients)",[1]; human,2
same,"Lymphocyte count increased, maximum Gr. 2 (number of patients)",[1]; human,1
same,"Neutrophil count decreased, maximum Gr. 2 (number of patients)",[1]; human,2
same,"Platelet count decreased, maximum Gr. 1 (number of patients)",[1]; human,2
same,"White blood cell decreased, maximum Gr. 1 (number of patients)",[1]; human,3
same,grade 3 anemia (number),[1]; human,1
same,grade 3 lymphopenia (number),[1]; human,2
same,recommended phase 2 dose (RP2D),[1]; human,240 mg/m^2/dose
same,"Anemia, maximum Gr. 1 (number of patients)","[1]; human, 1 cycle",9
same,"Anemia, maximum Gr. 2 (number of patients)","[1]; human, 1 cycle",3
same,"Anemia, maximum Gr. 3 (number of patients)","[1]; human, 1 cycle",1
same,"Fatigue, maximum Gr. 1 (number of patients)","[1]; human, 1 cycle",5
same,"Fatigue, maximum Gr. 2 (number of patients)","[1]; human, 1 cycle",3
same,"Hypoalbuminemia, maximum Gr. 1 (number of patients)","[1]; human, 1 cycle",2
same,"Hypoalbuminemia, maximum Gr. 2 (number of patients)","[1]; human, 1 cycle",2
same,"Lymphocyte count decreased, maximum Gr. 1 (number of patients)","[1]; human, 1 cycle",3
same,"Lymphocyte count decreased, maximum Gr. 2 (number of patients)","[1]; human, 1 cycle",5
same,"Lymphocyte count decreased, maximum Gr. 3 (number of patients)","[1]; human, 1 cycle",2
same,"Nausea, maximum Gr. 1 (number of patients)","[1]; human, 1 cycle",4
same,"Nausea, maximum Gr. 2 (number of patients)","[1]; human, 1 cycle",1
same,"Neutrophil count decreased, maximum Gr. 1 (number of patients)","[1]; human, 1 cycle",3
same,"Neutrophil count decreased, maximum Gr. 2 (number of patients)","[1]; human, 1 cycle",2
same,"Platelet count decreased, maximum Gr. 1 (number of patients)","[1]; human, 1 cycle",3
same,"Vomiting, maximum Gr. 1 (number of patients)","[1]; human, 1 cycle",4
same,"Vomiting, maximum Gr. 2 (number of patients)","[1]; human, 1 cycle",1
same,"White blood cell decreased, maximum Gr. 1 (number of patients)","[1]; human, 1 cycle",5
same,"White blood cell decreased, maximum Gr. 2 (number of patients)","[1]; human, 1 cycle",2
same,Sinus bradycardia,[1],not readily apparent
same,tolerability,[1],well tolerated
same,maximum tolerated dose (MTD),[2]; amorphous form (approximately 170 mg/m^2/dose),300 mg
same,maximum tolerated dose (MTD),[2]; crystalline form (approximately 210 mg/m^2/dose),360 mg
same,"Tmax, median (range)","[3]; Powder sprinkled on food, 240 mg/m^2 (n=9), Day 1 Cycle 1",2.0 (1.0–6.0) h
same,inter-patient variability in Cmax and AUC0–8h,[3]; across all dose levels,20 fold
same,AUC(0-t),"[3]; human, plasma, oral, 170 mg/m2, AUC0–8h, Capsule, 170 mg/m^2 (n=6), Day 1 Cycle 1, with food",3820 ng·h/mL
same,Tmax,"[3]; human, plasma, oral, 200 mg/m2",4 h
same,AUC(0-t),"[3]; human, plasma, oral, 200 mg/m2, AUC0–8h, Capsule, 200 mg/m^2 (n=7), Day 1 Cycle 1, with food",9470 ng·h/mL
same,Cmax,"[3]; human, plasma, oral, 200 mg/m2, Cmax, Capsule, 200 mg/m^2 (n=7), Day 1 Cycle 1, with food",2180 ng/mL
same,Tmax,"[3]; human, plasma, oral, 240 mg/m2",2 h
same,AUC(0-t),"[3]; human, plasma, oral, 240 mg/m2, AUC0–8h, Capsule, 240 mg/m^2 (n=13), Day 1 Cycle 1, with food",5630 ng·h/mL
same,AUC(0-t),"[3]; human, plasma, oral, 240 mg/m2, AUC0–8h, Powder sprinkled on food, 240 mg/m^2 (n=9), Day 1 Cycle 1",7300 ng·h/mL
same,Cmax,"[3]; human, plasma, oral, 240 mg/m2, Cmax, Capsule, 240 mg/m^2 (n=13), Day 1 Cycle 1, with food",1300 ng/mL
same,Cmax,"[3]; human, plasma, oral, 240 mg/m2, Cmax, Powder sprinkled on food, 240 mg/m^2 (n=9), Day 1 Cycle 1",1530 ng/mL
same,half-life,"[3]; human, plasma, oral, apparent elimination half-life, median, evaluable in 29 of 35 patients, range 1.2 – 18.0 hrs",162 min
same,Tmax,"[3]; human, plasma, po",~2 h
same,objective responses,"[4]; 32 patients evaluable for response, single agent",not observed; also recorded: no objective responses
same,duration of stable disease,"[4]; patient with neuroblastoma, 28-day cycles",8 cycles

# Source: article PMC5657151 (Pediatric blood & cancer, 2017)
